# The source made the active and inactive calls. Cut-off read from the data, not from the text of the source, for most assays here: actives have a measured EC50 and inactives only a lower limit.
# Tests used:
# [1] = luciferase reporter signal suppression in cells – H4 neuroglioma cells, luminescence, dose response (AID 1990); format: functional, cell-based
# cells [2] = format: functional, cell-based
# [3] = target: Serine/threonine-protein phosphatase (Candida dubliniensis (strain CD36 / CBS 7987 / NCPF 3949 / NRRLY-17841) (Yeast), UniProt B9W6M3); assay: blockers of CaCl2-induced CDRE-lacZ signaling – S. cerevisiae, luminescence, secondary, dose response (AID 2388); format: functional, cell-based;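 note: yeast reporter cells carrying a calcineurin-responsive lacZ construct stimulated with calcium chloride; luminescent beta-galactosidase reporter signal in whole cells rather than isolated phosphatase activity; potency for inhibition where a drop in reporter signal means calcineurin blockade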
# [4] = target: Heat shock protein HSP 90-alpha (Homo sapiens, UniProt P07900); format: functional, organism-based
# [5] = target: T1, Rac GTPase-activating protein 1 (Homo sapiens, UniProt Q9H0H5); assay: blockers of MgcRacGAP-driven Rac1 GTP hydrolysis – biochemical, ADP Hunter fluorescence, primary and confirmatory, confirmation (AID 624330); format: functional
# T1 sequence (Q9H0H5 whole entry): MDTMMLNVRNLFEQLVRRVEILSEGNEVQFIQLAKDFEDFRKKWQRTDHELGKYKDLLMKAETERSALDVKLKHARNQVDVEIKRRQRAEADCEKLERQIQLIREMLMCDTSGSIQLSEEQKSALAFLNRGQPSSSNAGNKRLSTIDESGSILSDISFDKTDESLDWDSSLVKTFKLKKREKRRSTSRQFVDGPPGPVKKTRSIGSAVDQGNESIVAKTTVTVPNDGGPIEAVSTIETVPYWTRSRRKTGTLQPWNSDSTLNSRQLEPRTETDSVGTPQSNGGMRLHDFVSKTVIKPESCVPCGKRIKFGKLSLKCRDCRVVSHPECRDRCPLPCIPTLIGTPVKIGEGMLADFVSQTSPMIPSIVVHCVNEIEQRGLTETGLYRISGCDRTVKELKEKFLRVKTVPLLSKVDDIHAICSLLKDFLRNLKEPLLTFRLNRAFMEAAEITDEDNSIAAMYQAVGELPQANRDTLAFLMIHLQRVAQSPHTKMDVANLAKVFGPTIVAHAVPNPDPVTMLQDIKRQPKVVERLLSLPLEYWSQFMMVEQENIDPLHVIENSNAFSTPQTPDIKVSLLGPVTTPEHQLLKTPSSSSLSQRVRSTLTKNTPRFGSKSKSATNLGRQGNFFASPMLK
# [6] = Luminescence Cell-Based Dose Response HTS to Identify Inhibitors of 5'UTR Stem-Loop Driven Prion Protein mRNA Translation in H4 Neuroglioblastoma Cells. [Related pubchem assays: 1827 (Project Summary), 1813 (Primary HTS)]; format: functional
# [7] = NIH-3T3 fibroblast cytotoxicity, dose response, cytotoxicity control, cell-based, fluorescence, Alamar Blue, secondary assay (AID 2327); format: functional;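 note: NIH-3T3 mouse fibroblasts cultured with fluconazole at 8 µg/mL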
# Streptokinase A = target: T2, Streptokinase A (Streptococcus pyogenes serotype M1, UniProt P10520); assay: viability-normalized secreted streptokinase activity reduction – plasminogen activation absorbance, OD405, dose response (AID 1914); format: functional, Streptococcus pyogenes M1 GAS;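 note: secreted streptokinase activity via plasminogen activation per viability signal from cell pellet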
# T2 sequence (P10520 whole entry): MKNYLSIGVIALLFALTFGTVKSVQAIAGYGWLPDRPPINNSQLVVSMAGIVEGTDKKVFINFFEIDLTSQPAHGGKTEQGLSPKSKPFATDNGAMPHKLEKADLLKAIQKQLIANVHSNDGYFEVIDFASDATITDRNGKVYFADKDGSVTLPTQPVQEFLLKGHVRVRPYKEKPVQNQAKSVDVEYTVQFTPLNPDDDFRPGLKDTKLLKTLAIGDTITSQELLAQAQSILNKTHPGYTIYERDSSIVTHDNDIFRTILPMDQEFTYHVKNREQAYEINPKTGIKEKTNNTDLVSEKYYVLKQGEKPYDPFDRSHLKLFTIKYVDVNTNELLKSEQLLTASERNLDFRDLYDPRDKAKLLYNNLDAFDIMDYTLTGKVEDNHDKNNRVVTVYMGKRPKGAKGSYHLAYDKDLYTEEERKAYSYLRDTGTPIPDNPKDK
# cells [8] = format: functional, cell-based; remark: listed apart in the source
# Streptococcus = assay: GAS UMAA2166 growth inhibition – luminescence, BacTiterGlo, counter-screen for streptokinase expression inhibitor project, dose response (AID 1915); format: functional, organism-based;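 note: potency for reduction of bacterial viability or growth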
# [9] = target: ATP-dependent molecular chaperone HSP82 (Candida albicans (strain WO-1) (Yeast), UniProt C4YTQ8); assay: steroid-induced GRE reporter decrease in yeast – S. cerevisiae, luminescence, Hsp90 inhibitor project, dose response (AID 2400); format: functional, cell-based;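 note: beta-galactosidase luminescence from glucocorticoid response element reporter as proxy for Hsp90 function; inhibitor potency where signal loss means Hsp90 inhibition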
# [10] = test system: Streptococcus sp. 'group A'; assay: Streptococcus pyogenes SK(-)GAS viability under kanamycin – luminescence, BacTiterGlo, confirmation, counter-screen for streptokinase expression inhibitor project, dose response (AID 1900); format: functional, organism-based
# HEK293 = assay: EBV LMP1 TES2 canonical NF-kB signalling blockers – cell-based, HEK293, luciferase, cherry-pick, dose response (AID 588343); format: functional; details: Homo sapiens
# [11] = alpha-synuclein stem-loop luciferase translation blockers – H4 neuroglioma cells, luminescence, confirmation (AID 1988); format: functional, cell-based
# [12] = fluconazole-exposed Candida albicans growth modulators – fluorescence, retest, confirmation (AID 2467); format: functional, cell-based
# INS1 = assay: INS-1E survival protection against cytokine death – cell-based, luminescence, retest, dose response (AID 449756); format: functional; details: Rattus norvegicus;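 note: cell death triggered by IL-1 beta plus TNF-alpha plus IFN-gamma mixture; protective hits raise ATP signal compared with cytokine alone wells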
# [13] = target: T3, Acyl-homoserine lactone acylase PvdQ (Pseudomonas aeruginosa (strain LESB58), UniProt Q9I194); assay: PvdQ acylase enzyme activity blockers – biochemical, fluorescence, plate reader and imaging, cherry-picks, dose response (AID 493231)
# T3 sequence (Q9I194 whole entry): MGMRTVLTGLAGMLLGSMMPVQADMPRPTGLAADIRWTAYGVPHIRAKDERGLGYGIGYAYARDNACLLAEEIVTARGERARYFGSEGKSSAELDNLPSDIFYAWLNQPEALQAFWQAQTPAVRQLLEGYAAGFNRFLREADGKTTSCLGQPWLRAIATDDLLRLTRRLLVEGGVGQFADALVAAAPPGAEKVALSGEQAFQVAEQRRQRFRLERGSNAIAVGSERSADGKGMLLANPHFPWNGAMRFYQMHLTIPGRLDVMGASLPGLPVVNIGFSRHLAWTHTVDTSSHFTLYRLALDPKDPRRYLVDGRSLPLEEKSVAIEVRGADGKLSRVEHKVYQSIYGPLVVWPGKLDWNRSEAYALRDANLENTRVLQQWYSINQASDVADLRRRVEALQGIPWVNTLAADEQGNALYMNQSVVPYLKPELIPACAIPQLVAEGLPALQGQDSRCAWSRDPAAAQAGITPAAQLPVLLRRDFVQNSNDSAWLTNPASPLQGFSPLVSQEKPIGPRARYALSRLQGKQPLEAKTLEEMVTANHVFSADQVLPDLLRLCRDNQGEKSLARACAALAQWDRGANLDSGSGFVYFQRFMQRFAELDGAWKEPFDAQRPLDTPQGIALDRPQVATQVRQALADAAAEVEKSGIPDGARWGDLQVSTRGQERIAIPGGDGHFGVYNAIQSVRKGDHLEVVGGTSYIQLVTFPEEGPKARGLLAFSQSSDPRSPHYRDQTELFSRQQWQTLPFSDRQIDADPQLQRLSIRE
# [14] = target: T4, Hepatocyte nuclear factor 4-alpha (Homo sapiens, UniProt P41235); format: functional, cell-based;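 note: biochemical luminescence-based dose-response counterscreen measuring inhibition of HNF4 dimerization, run alongside a screen for blockers of ABHD5–perilipin-5 interaction; split luciferase complementation of HNF4 fusion proteins in cell lysate measuring dimerization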
# T4 sequence (P41235 whole entry): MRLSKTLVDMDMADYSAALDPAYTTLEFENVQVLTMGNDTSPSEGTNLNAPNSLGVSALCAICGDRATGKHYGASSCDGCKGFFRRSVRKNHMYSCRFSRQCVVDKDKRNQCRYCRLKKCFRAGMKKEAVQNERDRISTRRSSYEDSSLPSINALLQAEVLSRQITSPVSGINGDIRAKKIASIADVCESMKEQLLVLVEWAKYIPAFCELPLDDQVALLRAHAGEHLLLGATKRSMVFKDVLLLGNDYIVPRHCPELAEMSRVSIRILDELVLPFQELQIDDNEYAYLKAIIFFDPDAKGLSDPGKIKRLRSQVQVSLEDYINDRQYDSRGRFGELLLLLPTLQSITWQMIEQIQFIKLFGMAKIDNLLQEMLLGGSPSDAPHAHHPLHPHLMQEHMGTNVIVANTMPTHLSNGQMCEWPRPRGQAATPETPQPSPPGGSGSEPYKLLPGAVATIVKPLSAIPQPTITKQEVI
# HeLa = assay: toxicity to human HeLa cells – cell-based, 48 h, plate reader, cherry-picks, cytotoxicity control, dose response (AID 504942); format: functional
# [15] = target: G-protein coupled receptor 55 (Homo sapiens, UniProt Q9Y2T6); assay: selective activators of receptor GPR55 – imaging, U2OS cells, beta-arrestin-GFP redistribution, primary screen (AID 1961); format: functional
# [16] = target: Neurotensin receptor type 1 (Homo sapiens, UniProt P30989); format: functional;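 note: Image-based confirmatory dose-response assay measuring agonist activity at NTR1; NTR1-expressing U2OS osteosarcoma cells imaged for beta-arrestin GFP spot formation; agonist potency where compounds increase beta-arrestin recruitment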
# DNA topoisomerase = DNA topoisomerase (Yersinia pestis, UniProt A0A2S9PM60); assay: Yersinia topoisomerase I cleavage product accumulation – biochemical, cherry-pick, dose response (AID 588525)
# DNA topoisomerase, sequence (A0A2S9PM60 whole entry): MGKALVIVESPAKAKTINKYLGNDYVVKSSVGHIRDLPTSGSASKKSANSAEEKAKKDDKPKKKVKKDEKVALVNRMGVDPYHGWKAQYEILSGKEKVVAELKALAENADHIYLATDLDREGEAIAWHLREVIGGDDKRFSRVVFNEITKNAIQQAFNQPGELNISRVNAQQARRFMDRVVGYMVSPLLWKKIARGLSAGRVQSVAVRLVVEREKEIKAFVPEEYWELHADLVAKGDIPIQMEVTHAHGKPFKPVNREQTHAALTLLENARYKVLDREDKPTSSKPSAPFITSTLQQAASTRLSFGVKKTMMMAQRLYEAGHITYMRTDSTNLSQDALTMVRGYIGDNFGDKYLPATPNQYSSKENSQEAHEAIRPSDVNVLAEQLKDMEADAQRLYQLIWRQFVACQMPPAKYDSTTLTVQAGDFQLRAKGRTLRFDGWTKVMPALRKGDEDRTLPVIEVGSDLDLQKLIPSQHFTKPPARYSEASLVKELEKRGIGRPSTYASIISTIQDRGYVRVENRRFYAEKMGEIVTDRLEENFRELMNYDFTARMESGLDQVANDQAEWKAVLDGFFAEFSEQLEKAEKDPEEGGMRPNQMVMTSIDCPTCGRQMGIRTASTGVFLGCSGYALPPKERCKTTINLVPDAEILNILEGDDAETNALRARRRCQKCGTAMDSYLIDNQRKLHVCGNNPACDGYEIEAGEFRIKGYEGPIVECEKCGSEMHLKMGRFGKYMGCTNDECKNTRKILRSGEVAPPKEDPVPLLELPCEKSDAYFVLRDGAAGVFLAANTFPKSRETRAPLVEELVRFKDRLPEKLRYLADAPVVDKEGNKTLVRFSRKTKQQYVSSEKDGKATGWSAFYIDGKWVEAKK
# Serine/threonine-protein phosphatase, sequence (B9W6M3 whole entry): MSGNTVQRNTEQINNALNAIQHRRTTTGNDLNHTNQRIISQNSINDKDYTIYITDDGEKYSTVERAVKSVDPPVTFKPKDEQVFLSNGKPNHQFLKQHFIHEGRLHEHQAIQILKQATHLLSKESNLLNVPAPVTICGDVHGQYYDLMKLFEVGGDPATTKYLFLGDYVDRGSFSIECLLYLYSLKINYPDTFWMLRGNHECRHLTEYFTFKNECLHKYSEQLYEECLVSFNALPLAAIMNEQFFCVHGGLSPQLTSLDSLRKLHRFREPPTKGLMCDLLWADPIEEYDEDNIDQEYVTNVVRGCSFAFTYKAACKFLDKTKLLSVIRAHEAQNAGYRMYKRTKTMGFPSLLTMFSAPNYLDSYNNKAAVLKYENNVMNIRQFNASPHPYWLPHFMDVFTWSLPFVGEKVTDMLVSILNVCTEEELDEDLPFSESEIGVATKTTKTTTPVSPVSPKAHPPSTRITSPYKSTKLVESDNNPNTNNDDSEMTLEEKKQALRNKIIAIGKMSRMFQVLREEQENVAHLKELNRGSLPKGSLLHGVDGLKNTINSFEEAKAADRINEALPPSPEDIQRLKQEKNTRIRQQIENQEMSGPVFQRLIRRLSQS
# G-protein coupled receptor 55, sequence (Q9Y2T6 whole entry): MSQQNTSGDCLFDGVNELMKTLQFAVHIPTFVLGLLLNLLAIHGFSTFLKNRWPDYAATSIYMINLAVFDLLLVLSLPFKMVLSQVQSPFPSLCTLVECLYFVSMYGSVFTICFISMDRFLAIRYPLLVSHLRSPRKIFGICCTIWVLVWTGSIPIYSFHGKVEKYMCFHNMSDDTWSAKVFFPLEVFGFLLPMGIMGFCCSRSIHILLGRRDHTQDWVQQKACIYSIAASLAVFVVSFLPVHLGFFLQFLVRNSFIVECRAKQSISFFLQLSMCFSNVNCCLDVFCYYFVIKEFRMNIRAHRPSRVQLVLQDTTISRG
# Neurotensin receptor type 1, sequence (P30989 whole entry): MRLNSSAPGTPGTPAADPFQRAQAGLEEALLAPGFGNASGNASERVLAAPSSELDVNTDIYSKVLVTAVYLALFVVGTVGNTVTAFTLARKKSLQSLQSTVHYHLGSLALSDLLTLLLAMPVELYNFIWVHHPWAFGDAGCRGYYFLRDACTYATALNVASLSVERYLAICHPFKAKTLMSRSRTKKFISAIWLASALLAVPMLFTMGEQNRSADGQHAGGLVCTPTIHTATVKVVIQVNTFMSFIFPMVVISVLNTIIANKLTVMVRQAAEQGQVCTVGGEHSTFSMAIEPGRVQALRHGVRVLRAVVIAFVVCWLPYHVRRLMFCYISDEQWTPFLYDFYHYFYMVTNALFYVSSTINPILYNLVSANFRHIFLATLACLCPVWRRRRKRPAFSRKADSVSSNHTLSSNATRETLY
# ATP-dependent molecular chaperone HSP82, sequence (C4YTQ8 whole entry): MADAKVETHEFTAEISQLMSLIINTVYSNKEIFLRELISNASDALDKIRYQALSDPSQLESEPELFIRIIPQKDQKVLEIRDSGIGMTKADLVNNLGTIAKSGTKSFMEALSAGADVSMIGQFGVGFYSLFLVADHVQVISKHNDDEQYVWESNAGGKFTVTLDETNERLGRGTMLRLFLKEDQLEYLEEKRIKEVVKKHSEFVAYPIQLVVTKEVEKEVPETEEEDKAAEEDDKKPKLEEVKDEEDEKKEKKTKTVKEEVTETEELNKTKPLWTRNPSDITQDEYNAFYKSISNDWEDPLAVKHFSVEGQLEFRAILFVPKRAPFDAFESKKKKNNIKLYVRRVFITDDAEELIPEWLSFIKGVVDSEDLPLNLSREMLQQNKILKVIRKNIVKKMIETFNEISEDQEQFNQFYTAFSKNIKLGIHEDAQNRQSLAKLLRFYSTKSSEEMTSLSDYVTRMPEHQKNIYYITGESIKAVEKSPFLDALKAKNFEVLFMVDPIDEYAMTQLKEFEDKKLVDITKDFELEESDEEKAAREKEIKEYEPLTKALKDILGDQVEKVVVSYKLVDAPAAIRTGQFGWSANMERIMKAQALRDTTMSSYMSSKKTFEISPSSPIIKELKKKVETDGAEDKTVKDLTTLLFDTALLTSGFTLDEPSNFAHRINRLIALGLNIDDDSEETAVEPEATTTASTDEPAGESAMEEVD
structure (smiles),measurement,setting,value
O=C(N/N=C/c1sc2ccccc2c1O)c1cccc2ccccc12,EC50,[1],10.6 µM (active)
same,EC50,cells [2],12.5 µM (active)
same,EC50,[3],> 180 µM (inactive)
same,AC50,[4],14 µM (active)
same,IC50,[5],52.9 µM (active)
same,EC50,[6],10.4 µM (active)
same,EC50,[7],> 160 µM (inactive)
same,EC50,Streptokinase A,> 150 µM (not active)
same,EC50,cells [8],> 350 µM (not active)
same,EC50,Streptococcus,12.4 µM (active)
same,EC50,[9],9.14 µM (active)
same,EC50,[10],3.44 µM (active)
same,AC50,HEK293,5.14 µM (active)
same,EC50,[11],9 µM (active)
same,EC50,[12],0.738 µM (active)
same,AC50,INS1,1.1 µM (active)
O=CC1=C(c2ccccc2)Oc2ccccc2O1,AC50,[13],2.14 µM (active)
same,IC50,[14],10.4 µM (inactive)
same,AC50,HeLa,23.9 µM (active)
same,EC50,[15],2.28 µM (active)
same,EC50,[16],16 µM (active)
CC(C)(C)c1ccc(OCCn2nc(C(=O)O)c3ccccc3c2=O)cc1,AC50,DNA topoisomerase,9.12 µM (active)

# Reference: ChEMBL document CHEMBL1201862, “PubChem BioAssay data set” (2004)
